Data reported in ChEMBL document CHEMBL1201862, “PubChem BioAssay data set” (2004).
Active and inactive are the calls of the source. Rule as the data show it: actives have a measured IC50 and inactives only a lower limit.

Target: Envelope glycoprotein gp160 (Human immunodeficiency virus 1, UniProt Q6QLK5)
Assay: cell-free HIV fusion peptide-binding blockers – biochemical, uHTS, fluorescence dequenching, […] (AID 1986)

Chain of Envelope glycoprotein gp160 (Q6QLK5 whole entry, the tested form may be a part): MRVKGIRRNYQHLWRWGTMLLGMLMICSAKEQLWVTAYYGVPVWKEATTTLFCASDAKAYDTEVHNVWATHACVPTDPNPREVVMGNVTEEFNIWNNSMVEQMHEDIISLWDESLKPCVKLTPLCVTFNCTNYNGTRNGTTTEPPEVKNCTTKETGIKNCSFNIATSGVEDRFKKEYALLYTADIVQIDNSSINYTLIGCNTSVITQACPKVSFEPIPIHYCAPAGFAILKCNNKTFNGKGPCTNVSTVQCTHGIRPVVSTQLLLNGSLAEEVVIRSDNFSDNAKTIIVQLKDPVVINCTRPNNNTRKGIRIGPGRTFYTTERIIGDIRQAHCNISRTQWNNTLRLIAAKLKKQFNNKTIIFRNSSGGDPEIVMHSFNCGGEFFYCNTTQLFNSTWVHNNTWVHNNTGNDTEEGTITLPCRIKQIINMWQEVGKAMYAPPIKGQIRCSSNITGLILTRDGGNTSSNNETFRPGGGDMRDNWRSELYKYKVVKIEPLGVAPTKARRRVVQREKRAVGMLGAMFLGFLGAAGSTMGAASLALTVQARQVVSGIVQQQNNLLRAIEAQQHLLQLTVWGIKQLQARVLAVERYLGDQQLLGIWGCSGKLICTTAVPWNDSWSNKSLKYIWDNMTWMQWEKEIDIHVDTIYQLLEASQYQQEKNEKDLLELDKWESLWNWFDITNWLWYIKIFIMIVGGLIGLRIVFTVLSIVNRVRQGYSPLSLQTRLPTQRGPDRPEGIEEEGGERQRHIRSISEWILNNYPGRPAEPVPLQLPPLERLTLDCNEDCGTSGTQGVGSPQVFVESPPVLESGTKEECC

**Q.** For O=C(CN1C(=O)/C(=C2\SC(=S)N(CCS(=O)(=O)O)C2=O)c2ccccc21)Nc1cccc(Br)c1, which IC50 is on record?
**A.** 9.81 µM (active)
